{"source": "patent US11154616B2", "about": "“Methods of treating locally advanced or metastatic breast cancers using PD-1 axis binding antagonists and taxanes” (Genentech, Inc., priority 2015, dated 2021)", "origin": "cited, not measured here", "system": "mTNBC", "details": "monotherapy in mTNBC"}
{"substance": "MPDL3280A: humanized monoclonal anti-PD-L1 antibody that inhibits the binding of PD-L1 to PD-1", "values": [{"measurement": "clinical response as a monotherapy", "value": "durable responses"}]}
